Laboratory results as given in patent US20070072897A1, “Phenylaminopropanol derivatives and methods of their use” (Wyeth, priority 2005, published 2007).
Structures can show the parent of a compound that is named as a salt.

Tests used:
[1] = target: T1, human hNET (Homo sapiens, UniProt P23975); test: Norepinephrine (NE) uptake assay in MDCK-Net6 cells; format: cell-based; details: [3H]NE uptake; for EC50: MDCK-Net6 cells stably transfected with hNET; for inhibition at 1 µM: MDCK-Net6 cells, read-out: hNET Percentage inhibition at 1 μM
T1 construct: expressed in transfected cells; host or cells: MDCK (MDCK-Net6)
T1 sequence (P23975 whole entry): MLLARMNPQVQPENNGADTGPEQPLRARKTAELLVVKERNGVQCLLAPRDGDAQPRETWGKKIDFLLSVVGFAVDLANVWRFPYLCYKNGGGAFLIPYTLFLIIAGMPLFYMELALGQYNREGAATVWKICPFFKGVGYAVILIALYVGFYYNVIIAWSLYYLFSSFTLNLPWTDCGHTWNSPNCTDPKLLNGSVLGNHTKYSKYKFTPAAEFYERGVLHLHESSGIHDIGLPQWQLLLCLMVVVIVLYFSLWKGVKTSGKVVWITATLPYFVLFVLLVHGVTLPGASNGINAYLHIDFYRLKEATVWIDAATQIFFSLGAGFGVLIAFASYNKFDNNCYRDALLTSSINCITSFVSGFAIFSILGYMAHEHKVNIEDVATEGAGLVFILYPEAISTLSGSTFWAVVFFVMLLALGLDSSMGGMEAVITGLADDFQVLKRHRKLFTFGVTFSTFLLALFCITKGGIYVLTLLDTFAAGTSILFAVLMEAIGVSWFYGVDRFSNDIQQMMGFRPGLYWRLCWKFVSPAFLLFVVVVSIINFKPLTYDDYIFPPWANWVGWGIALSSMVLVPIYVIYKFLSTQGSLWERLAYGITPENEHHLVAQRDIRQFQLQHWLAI

[2] = target: T2, human 5-HT2A receptor (Homo sapiens, UniProt P28223); test: 5-HT2A FLIPR assay (calcium response to DOI) in CHO cells; format: cell-based; details: for IC50: antagonist inhibition of 3 nM DOI stimulation, CHO cells, FLIPR; for inhibition at 1 µM: CHO, read-out: 5-HT2A Percentage inhibition at 1 μM
T2 construct: expressed in transfected cells; host or cells: CHO
T2 sequence (P28223 whole entry): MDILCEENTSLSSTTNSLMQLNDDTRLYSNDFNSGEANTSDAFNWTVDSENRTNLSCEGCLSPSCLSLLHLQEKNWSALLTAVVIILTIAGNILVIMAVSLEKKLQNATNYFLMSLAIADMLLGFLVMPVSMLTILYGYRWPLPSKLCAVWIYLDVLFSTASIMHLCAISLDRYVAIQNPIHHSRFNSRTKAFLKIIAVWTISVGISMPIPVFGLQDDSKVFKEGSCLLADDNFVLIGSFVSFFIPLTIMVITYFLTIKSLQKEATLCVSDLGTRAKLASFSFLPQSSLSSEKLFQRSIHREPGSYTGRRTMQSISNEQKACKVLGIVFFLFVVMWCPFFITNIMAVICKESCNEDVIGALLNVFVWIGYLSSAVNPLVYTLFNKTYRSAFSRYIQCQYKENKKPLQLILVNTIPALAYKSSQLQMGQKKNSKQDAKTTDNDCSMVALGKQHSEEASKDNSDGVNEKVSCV
Method: Cells are washed with PBS without Ca^2+ and 3 mL Trypsin is added to dissociate cells. After 3 minute incubation, 7 mL Trypsin Neutralizing Solution is added. Cells are then aspirated from flask and mixed in a 50 mL conical tube. 10 μL sample is used to count cells on a hemacytometer. […] Two 96-well drug plates are prepared for each cell plate. Plate 1 will contain compounds to be tested and plate 2 will contain the agonist DOI (3 nM) to activate a calcium response. Specific details of compound preparation are listed below. […] Outside wells are not used due to an edge effect seen in these cells. The reference compounds DOI and 5-HT are used as standard 5HT agonists. […] Standards for plate one are Vehicle, 1 μM DOI, and 3 nM MDL. […] On the day of the assay, test compound solutions of appropriate concentrations are diluted in assay buffer as described for single concentration testing. This procedure is followed to ensure that the solvent concentration is consistent across dilutions. The typical concentration testing range of compounds is 10^−10—10^−5 M in half log or full log increments. A 10 μM DOI stock is diluted to 60 nM and added to the respective wells. The pipeting station of the FLIPR will make an additional 20-fold dilution for a final concentration of 3 nM. Standards for this plate include Vehicle and 3 nM DOI. Contents of dye vial (Molecular Devices #R8090) are dissolved in 100 mL of 1×HBSS supplemented with 20 mM HEPES. Aliquots can be frozen at −20° C. for up to one week for future use. On the day of assay, dye is thawed and diluted to half concentration. […] Cells are allowed to adhere for 24 hours in 96-well plates. […] Cell, compound and DOI plates are loaded into the FLIPR machine. The baseline fluorescence level is read once every second for 1 minute. Compound (10 μL) is transferred from the compound plate to the cells and the fluorescence level recorded every 6 seconds for 2 minutes to determine any agonist activity. Baseline fluorescence is recorded again every second for 10 seconds. For antagonist determination, 10 μL of 3 nM DOI is transferred from the DOI plate to the cells and the fluorescence level recorded every 6 seconds for 5 minutes. The pipetting unit of the FLIPR machine completes all transfers. […] The data are log transformed prior to analysis.

SMILES	EC50 [1] [nM]	IC50 [2] [nM]	inhibition at 1 µM [1] [%]	inhibition at 1 µM [2] [%]
CNC[C@@H](O)[C@H](c1ccccc1)n1ccc2cc(C#Cc3ccccc3)ccc21 [Example 93, (1S,2R)-3-(methylamino)-1-phenyl-1-[5-(phenylethynyl)-1H-indol-1-yl]propan-2-ol hydrochloride]	287	–	–	36
CNC[C@@H](O)[C@H](c1ccccc1)N1CCc2cc(NC(=O)c3ccccc3)ccc21 [Example 74, N-{1-[(1S,2R)-2-Hydroxy-3-(methylamino)-1-phenylpropyl]-2,3-dihydro-1H-indol-5-yl}benzamide hydrochloride]	365	–	–	24
CCNC[C@@H](O)[C@H](c1ccccc1)N1C(=O)C2(CCCCC2)c2cc(F)ccc21 [Example 100, 1′-[(1S,2R)-3-(ethylamino)-2-hydroxy-1-phenylpropyl]-5′-fluorospiro[cyclohexane-1,3′-indol]-2′(1′H)-one hydrochloride]	–	378	31	–
O=C1N([C@@H](c2ccccc2)[C@H](O)CN2CCOCC2)c2ccc(F)cc2C12CCCCC2 [Example 104, 5′-fluoro-1′-[(1S,2R)-2-hydroxy-3-morpholin-4-yl-1-phenylpropyl]spiro[cyclohexane-1,3′-indol]-2′(1′H)-one hydrochloride]	–	–	13	22
CNC[C@@H](O)[C@H](c1ccccc1)n1ccc2cc(NC(=O)c3ccc(C)c(Cl)c3)ccc21 [Example 71, 3-chloro-N-{1-[(1S,2R)-2-hydroxy-3-(methylamino)-1-phenylpropyl]-1H-indol-5-yl}-4-methylbenzamide hydrochloride]	92	–	–	44
CNC[C@@H](O)[C@H](c1ccccc1)N1C(=O)C2(CCCCC2)c2cc(C#N)ccc21 [Example 107, 1′-[(1S,2R)-2-hydroxy-3-(methylamino)-1-phenylpropyl]-2′-oxo-1′,2′-dihydrospiro[cyclohexane-1,3′-indole]-5′-carbonitrile hydrochloride]	349	168	–	–
NC[C@@H](O)[C@H](c1ccccc1)N1C(=O)C2(CCCCC2)c2cc(F)ccc21 [Example 99, 1′-[(1S,2R)-3-amino-2-hydroxy-1-phenylpropyl]-5′-fluorospiro[cyclohexane-1,3′-indol]-2′(1′H)-one hydrochloride]	–	–	11	7
CCNC[C@@H](O)[C@H](c1ccccc1)N1C(=O)C2(CCCCC2)c2ccc(F)cc21 [Example 96, 1′-[(1S,2R)-3-(ethylamino)-2-hydroxy-1-phenylpropyl]-6′-fluorospiro[cyclohexane-1,3′-indol]-2′(1′H)-one hydrochloride]	–	462	48	–
CNC[C@@H](O)[C@H](c1ccccc1)n1ccc2c(OCc3ccccc3)cccc21 [Example 2, (1S,2R)-1-[4-(benzyloxy)-1H-indol-1-yl]-3-(methylamino)-1-phenylpropan-2-ol hydrochloride]	310	–	–	29
CC(C)NC[C@@H](O)[C@H](c1ccccc1)N1C(=O)C2(CCCCC2)c2cc(F)ccc21 [Example 101, 5′-fluoro-1′-[(1S,2R)-2-hydroxy-3-(isopropylamino)-1-phenylpropyl]spiro[cyclohexane-1,3′-indol]-2′(1′H)-one hydrochloride]	–	–	0	22
CNC[C@@H](O)[C@H](c1ccccc1)n1ccc2ccc(Oc3ccccc3)cc21 [Example 80, (1S,2R)-3-(methylamino)-1-(6-phenoxy-1H-indol-1-yl)-1-phenylpropan-2-ol hydrochloride]	–	–	12	32
CNC[C@@H](O)[C@H](c1ccccc1)N1CCc2cc(NC(=O)C3CCCCC3)ccc21 [Example 76, N-{1-[(1S,2R)-2-Hydroxy-3-(methylamino)-1-phenylpropyl]-2,3-dihydro-1H-indol-5-yl}cyclohexanecarboxamide hydrochloride]	–	–	54	45
CCCNC[C@@H](O)[C@H](c1ccccc1)n1ccc2cc(OCc3ccccc3)ccc21 [Example 84, (1S,2R)-1-[5-(benzyloxy)-1H-indol-1-yl]-1-phenyl-3-(propylamino)propan-2-ol hydrochloride]	–	–	11	50
CNC[C@@H](O)[C@H](c1ccccc1)N1CCc2cc(NC(=O)c3cccc(Cl)c3)ccc21 [Example 72, 3-Chloro-N-{1-[(1S,2R)-2-hydroxy-3-(methylamino)-1-phenylpropyl]-2,3-dihydro-1H-indol-5-yl}benzamide hydrochloride]	95	–	–	60

Now from value to compound, other results behind:

EC50 [1] [nM]	IC50 [2] [nM]	inhibition at 1 µM [1] [%]	SMILES	inhibition at 1 µM [2] [%]
17	888	–	CNC[C@@H](O)[C@H](c1ccccc1)n1ccc2cc(OCc3cccc(OC)c3)ccc21 [Example 6, (1S,2R)-1-{5-[(3-methoxybenzyl)oxy]-1H-indol-1-yl}-3-(methylamino)-1-phenylpropan-2-ol hydrochloride]	–
328	84	–	CNC[C@@H](O)[C@H](c1ccccc1)n1ccc2cc(C(=O)Nc3cccc(Cl)c3)ccc21 [Example 79, N-(3-Chlorophenyl)-1-[(1S,2R)-2-hydroxy-3-(methylamino)-1-phenylpropyl]-1H-indole-5-carboxamide hydrochloride]	–
–	2600	48	CNC[C@@H](O)[C@H](c1ccccc1)n1ccc2cccc(-c3ccccc3)c21 [Example 23, (1S,2R)-3-(methylamino)-1-phenyl-1-(7-phenyl-1H-indol-1-yl)propan-2-ol hydrochloride]	–
908	615	–	CNC[C@@H](O)[C@H](c1ccccc1)N1C(=O)C2(CCCCC2)c2ccc(OC)cc21 [Example 106, 1′-[(1S,2R)-2-hydroxy-3-(methylamino)-1-phenylpropyl]-6′-methoxyspiro[cyclohexane-1,3′-indol]-2′(1′H)-one hydrochloride]	–
–	1120	16	CCN(C)C[C@@H](O)[C@H](c1ccccc1)n1ccc2cc(OCc3ccccc3)ccc21 [Example 87, (1S,2R)-1-[5-(benzyloxy)-1H-indol-1-yl]-3-[ethyl(methyl)amino]-1-phenylpropan-2-ol hydrochloride]	–
67	712	–	CNC[C@@H](O)[C@H](c1ccccc1)n1ccc2cc(OCc3ccc(Cl)cc3)ccc21 [Example 10, (1S,2R)-1-{5-[(4-chlorobenzyl)oxy]-1H-indol-1-yl}-3-(methylamino)-1-phenylpropan-2-ol hydrochloride]	–
279	796	–	NC[C@@H](O)[C@H](c1ccccc1)n1ccc2cc(OCc3ccccc3)ccc21 [Example 82, (1S,2R)-3-amino-1-[5-(benzyloxy)-1H-indol-1H-yl]-1-phenylpropan-2-ol hydrochloride]	–
–	263	22	CN(C)C[C@@H](O)[C@H](c1ccccc1)n1ccc2cc(OCc3ccccc3)ccc21 [Example 86, (1S,2R)-1-[5-(benzyloxy)-1H-indol-1-yl]-3-(dimethylamino)-1-phenylpropan-2-ol hydrochloride]	–
32	281	–	CNC[C@@H](O)[C@H](c1ccccc1)n1ccc2cc(OCc3ccc(OC)cc3)ccc21 [Example 7, (1S,2R)-1-{5-[(4-methoxybenzyl)oxy]-1H-indol-1-yl}-3-(methylamino)-1-phenylpropan-2-ol hydrochloride]	–
–	380	43	CCNC[C@@H](O)[C@H](c1ccccc1)n1ccc2cc(OCc3ccccc3)ccc21 [Example 83, (1S,2R)-1-[5-(benzyloxy)-1H-indol-1-yl]-3-(ethylamino)-1-phenylpropan-2-ol hydrochloride]	–
–	1470	20	CNC[C@@H](O)[C@H](c1ccccc1)n1ccc2cccc(OCc3ccccc3)c21 [Example 4, (1S,2R)-1-[7-(benzyloxy)-1H-indol-1-yl]-3-(methylamino)-1-phenylpropan-2-ol hydrochloride]	–
873	2640	–	CNC[C@@H](O)[C@H](c1ccccc1)n1ccc2cc(OC(C)c3ccccc3)ccc21 (mixture of isomers) [Example 17, (1S,2R)-3-(methylamino)-1-phenyl-1-[5-(1RS)-(1-phenylethoxy)-1H-indol-1-yl]propan-2-ol hydrochloride]	–
